In ChEMBL document CHEMBL6071183, “Neuroprotective Effect of 2-(Benzyloxy)arylureas Is Not Related to CypD Inhibition nor Suppression of mPTP Opening” (ACS Med Chem Lett, 2024) one finds IC50 and solubility data, which are given here for one compound.

For data set [1], the target named is Peptidyl-prolyl cis-trans isomerase A (Homo sapiens, UniProt P62937).

Values after ≈ are worked out from the molar mass of the structure shown.

Sequence of Peptidyl-prolyl cis-trans isomerase A (P62937 whole entry): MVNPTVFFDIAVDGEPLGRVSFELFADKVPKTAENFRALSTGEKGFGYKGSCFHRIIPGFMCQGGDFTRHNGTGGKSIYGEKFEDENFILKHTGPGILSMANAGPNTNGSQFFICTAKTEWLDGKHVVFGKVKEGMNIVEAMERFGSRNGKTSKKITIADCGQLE

For orientation: IC50 means the concentration that gives 50% inhibition. A lower IC50 goes with greater potency in that assay. The term solubility denotes the dissolved amount per volume that the medium holds. Low readings indicate little dissolved substance, high ones much dissolved substance. As to `O=C(Nc1ccc([N+](=O)[O-])cc1)Nc1ncccc1OCc1ccccc1`, the IC50 in data set [1] stood at 10 µM. The compound further gave a solubility in the data set “physchem” of 20 µM (≈ 7.29 µg/mL).
